The record followed here is US12006343B2, “C4BP-based compounds for treating immunological diseases” (FUNDACIO INSTITUT D'INVESTIGACIO BIOMEDICA DE BELLVITGE …, priority 2017, dated 2024).

Data set [1] deals with Balb/c male mice, CAIA model. It counts as in vivo, mouse. The note with it: for ankle thickness: C4BP(β−) 50 μg sc d3 and d5, dexamethasone 1 mg/kg po d5-11, Enbrel 30 mg/kg sc d5-11; for body weight vs CAIA control group: mouse, in vivo. The source says: Collagen-antibody induced arthritis (CAIA) is a simple mouse model of human rheumatoid arthritis (RA) induced by the systemic administration of a cocktail of monoclonal antibodies directed against conserved auto-antigenic collagen type II epitopes, followed by a single injection of lipopolysaccharide (LPS). CAIA is a useful model to study the effector inflammatory phase of arthritis without involving the priming phase of the immune response. The murine CAIA model shares several clinical, immunological and pathological features with RA. Therefore, this model is useful to study the pathogenic mechanisms involved in RA disease as well as for testing new therapies.
Balb/c male mice aged 7-8 weeks were supplied by Envigo. The animals were acclimated during 12 days. The animals were maintained in an environmentally controlled room with ventilation, temperature (22±2° C.), relative humidity (35-65%), and cycle light/dark (12 h/12 h). The animals were housed in groups of 3-5 animals/cage. The maintenance diet was supplied by Harlan Interfauna Ibérica, S. L. (“2014 Harlan Teklad Global Diets”) and they were feed diet and water ad libitum.
Plasmatic C4BP(β−) was supplied at a concentration of 6.2 mg/ml. C4BP(β−) solutions were prepared to the desired concentration 0.33 mg/ml (for 50 μg doses) by dilution with Dulbecco's phosphate-buffered saline (DPBS) of C4BP(β−) 6.2 mg/ml stock solution.
Two reference compounds were used: dexamethasone (Sigma, Ref. D1756) and Enbrel® (etanercept) (Pfizer, Ref. 655950).
Reference compound dexamethasone was dissolved in vehicle (0.1% Tween-80+99% carboxymethyl cellulose (CMC) (0.5% w/v) in water at a concentration of 0.1 mg/ml.
Enbrel® was prepared at 6 mg/ml in DPBS by dilution of 50 mg/mL stock solution.
Experimental Procedure Day 0: Arthritis Induction
On day 0, animals for experimental group C4BPd3 were randomly selected (n=8) and identified using tail code numbers and weighted.
Each mouse was sensitized by the administration of 2 mg anti-type II collagen antibodies cocktail (ArthritoMAB™ cocktail solution, 0.2 mL, i.v., day 0) in the caudal vein.
Day 3: LPS Synchronization
Animals were intraperitoneally administered with 0.1 mL of LPS solution (0.7 mg/ml, 70 μg/animal).
50 μg of C4BP(β−) were administered subcutaneously at day 3 to treatment group C4BPd3.
50 μg of C4BP(β−) were administered subcutaneously at day 5 to treatment group C4BPd3.
Day 5: Animal Distribution
On day 5 after sensitization, the rest of the animals developing clinical signs of arthritis (n=18) were evaluated and distributed in base of CAIA+incidence. Animals were homogeneously randomized (arthritis score) into the CAIA control group, dexamethasone (1 mg/kg at days 5-11, p.o.) and Enbrel®-treated groups (30 mg/kg at days 5-11, s.c.) (n=6). Animals were identified using tail code numbers and weighted.
Group 2 was not included in the distribution because of the previous test item administration.
The arthritis score was determined using the criteria of Table 9.
Treatment: • C4BPd3 group: 50 μg of C4BP(β−) were subcutaneously injected to animals on days 3 and 5. Volume: 0.150 mL. • Reference compound treatments and CAIA control groups (days 5-11): • Enbrel®: 30 mg/kg of Enbrel® was subcutaneously administered to Enbrel group from days 5 to 11. Volume: 5 mL/kg. • Dexamethasone: 1 mg/kg dexamethasone was orally administered to dexamethasone group from days 5 to 11. Volume: 10 mL/kg. • CAIA control group: 0.150 mL of DPBS was subcutaneously administered from days 5 to 11. Arthritis Monitoring:
Body weights were registered daily from days 0-12 in C4BPd3 and from days 5-12 in CAIA control, dexamethasone and Enbrel® groups. Arthritis scores were determined by the same observer in order to avoid observer bias.
The study was finished at day 12.
Animals were anesthetized with isoflurane. Ankles and wrists thickness were measured using a dial thickness gauge. Serum samples were collected and stored at −20° C. […]

Data set [2] has as its system human monocyte-derived DCs. The data set can be described thus: Immunomodulatory activity over human monocyte-derived DCs: CD83/CD86 surface expression by flow cytometry after LPS maturation. The class given is cell-based. The note with it: Example 1. As for the experimental part: In Vitro Functional Assessment of the Immunomodulatory Activity of Full-Length C4BP(β−) and C4BP(β−) Variants Over DCs
The inventors used for the in vitro study both C4BP(β+) (WT) and recombinant C4BP(β−) isoforms, and the above-referred mutants or variants: Mutant 1 and Mutant 2. C4BP(β+) isoforms refer to the major C4BP α7β1 plus the minor C4BP α6β1 isoforms (both in complex with ProS) purified from pooled human plasma.
RPMI 1640 was supplemented with 100 μg/ml of streptomycin, 100 IU/ml of penicillin, 2 mM L-glutamine (all from Invitrogen, Carlsbad, CA) and 10% heat-inactivated fetal bovine serum (Linus, Cultek, Spain) (complete medium), unless otherwise stated.
Peripheral blood mononuclear cells (PBMCs) were obtained from buffy coat preparations collected from healthy donors from the Blood and Tissue Bank (Barcelona, Spain) after Ficoll-Paque™ density centrifugation (GE Healthcare Bio-Sciences AB; Uppsala, Sweden). For surface phenotype determination, monocytes were plated at 1×10^6 cells/ml in 60 mm culture plates (Corning, Spain), in RPMI 1640 medium without serum, and allowed to adhere for 2 h at 37° C. in 5% CO2. The non-adherent cells were removed by washing in PBS.
Monocyte-derived DCs were generated supplementing the monocyte cultures with complete RPMI 1640 medium plus GM-CSF (800 UI/ml) and IL-4 (500 UI/ml) (both from Gentaur, Kampenhout, Belgium) at day 0 and day 3 of culture. For DC maturation, at day 5 iDCs were further stimulated for 48 h with 5 μg/ml LPS (Escherichia coli 055.B5, Sigma L2880, Copenhagen, Denmark).
Staining using the fluorescent dye 7-amino-actinomycin D (7-AAD) (BD Pharmigen) and flow cytometry analysis was employed to assess the viability status of C4BP-treated and untreated DCs.
Cell surface phenotypes were analyzed by flow cytometry using the following mAbs: FITC-conjugated anti-CD83 (HB15a) and PE-conjugated anti-CD86 (HA5.2B7) (all from Beckman-Coulter). The respective isotype controls FITC-conjugated anti-IgG2b (H2) and PE-conjugated anti-IgG2b (H2), were from the same commercial sources. After washing with PBS, cells were subsequently stained with 3 μl mAb/10^5 cells in 100 μl of FACS buffer (PBS containing 1% BSA and 0.1% sodium azide) for 20 min at room temperature. To exclude dead cells and debris, DCs were gated according to forward scatter (FSC) and side scatter (SSC) parameters. Stained cells were analyzed using a FACSCalibur (Becton Dickinson, Franklin Lakes, NJ) equipped with CellQuestPro software (Becton Dickinson).
In Vitro Functional Assessment of C4BP(β−) Immunomodulatory Activity Over DCs
The inventors used for the in vitro study both C4BP(+) and C4BP(β−) isoforms. C4BP(3+) isoforms refer to the major C4BP α7β1 plus the minor C4BP α6β1 isoforms (both in complex with ProS) purified from pooled human plasma, as previously described (Dahlbäck B. 1983. Biochem J., 209:847-56).
(In general: In flow cytometry, cells or beads pass a laser one at a time.)

For the compound `C[C@@H]1C[C@H]2[C@@H]3CCC4=CC(=O)C=C[C@]4(C)[C@@]3(F)[C@@H](O)C[C@]2(C)[C@@]1(O)C(=O)CO` [dexamethasone], the “inhibition of arthritis score vs. CAIA controls AUC” value in data set [1] (C4BP(β−) 50 μg sc days 3 and 5, dexamethasone 1 mg/kg po days 5-11) was 73%. The ankle thickness in data set [1] (day 12) came out at 2.63±0.05 mm. In data set [1], the “body weight vs CAIA control group” value is on record as “No remarkable differences”.
Take C4BP(CCP5-CCP8)(α7β0) [Mutant 1]: the “immunomodulatory activity over DCs” value in data set [2] is listed as “retains the immunomodulatory activity over DCs”.
Turning to etanercept [Enbrel], the “inhibition of arthritis score vs. CAIA controls d12” value in data set [1] (Enbrel 30 mg/kg sc days 5-11) was 47%. In data set [1] (day 12), this compound showed an ankle thickness of 2.73±0.04 mm. Moreover, the “wrist thickness vs. CAIA control” value in data set [1] (day 12, regimens as Table 8) is listed as “No changes”. Also, the “body weight vs CAIA control group” value in data set [1] is “No remarkable differences”. Further, the “arthritis scores / progression of arthritis” value in data set [1] (regimens as Table 8, vs CAIA control group) is “progressive reduction of arthritis scores over time”.
